Columns and labels:
Experiment in all cases: relative viability (nuclei count vs DMSO), 5 days (fraction); higher = more cells survive
[1] = compound: C[C@]12O[C@H](C[C@]1(O)CO)n1c3ccccc3c3c4c(c5c6ccccc6n2c5c31)CNC4=O [Lestaurtinib] + CC1(C)CCC(c2ccc(Cl)cc2)=C(CN2CCN(c3ccc(C(=O)NS(=O)(=O)c4ccc(N[C@H](CCN5CCOCC5)CSc5ccccc5)c(S(=O)(=O)C(F)(F)F)c4)cc3)CC2)C1 [Navitoclax] (partner 0.5 µM)
In short: (§1)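 Five library-drug doses in √10 steps were combined with a fixed anchor-drug dose, or a single drug was given alone, by pin tool to lung cancer cell lines in 1536-well plates the day after seeding. Nuclei were stained and counted after 5 days. Relative viability is the nuclei count in treated wells over that in vehicle wells, taken as the median of duplicate plates.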

Lestaurtinib + Alpelisib = compound: C[C@]12O[C@H](C[C@]1(O)CO)n1c3ccccc3c3c4c(c5c6ccccc6n2c5c31)CNC4=O [Lestaurtinib] + Cc1nc(NC(=O)N2CCC[C@H]2C(N)=O)sc1-c1ccnc(C(C)(C)C(F)(F)F)c1 [Alpelisib] (partner 2 µM)
In short: as §1

[2] = compound: C[C@]12O[C@H](C[C@]1(O)CO)n1c3ccccc3c3c4c(c5c6ccccc6n2c5c31)CNC4=O [Lestaurtinib] + Cc1cc(Nc2cc(N3CCN(C)CC3)nc(Sc3ccc(NC(=O)C4CC4)cc3)n2)n[nH]1 [Tozasertib] (partner 0.1 µM)
In short: as §1

[3] = compound: C1/C(=C\C2=CC=CS2)/C(=O)/C(=C/C3=CC=CS3)/C1 + CC1(C)CCC(c2ccc(Cl)cc2)=C(CN2CCN(c3ccc(C(=O)NS(=O)(=O)c4ccc(N[C@H](CCN5CCOCC5)CSc5ccccc5)c(S(=O)(=O)C(F)(F)F)c4)cc3)CC2)C1 [Navitoclax] (partner 0.5 µM)
In short: as §1

Row | Cell Line | relative viability ([1]; first compound 0.005 µM) | relative viability ([1]; first compound 0.01581 µM) | relative viability ([1]; first compound 0.05 µM) | relative viability ([1]; first compound 0.1581 µM) | relative viability ([1]; first compound 0.5 µM) | relative viability (Lestaurtinib + Alpelisib; first compound 0.005 µM) | relative viability (Lestaurtinib + Alpelisib; first compound 0.01581 µM) | relative viability (Lestaurtinib + Alpelisib; first compound 0.05 µM) | relative viability (Lestaurtinib + Alpelisib; first compound 0.1581 µM) | relative viability (Lestaurtinib + Alpelisib; first compound 0.5 µM) | relative viability ([2]; first compound 0.005 µM) | relative viability ([2]; first compound 0.01581 µM) | relative viability ([2]; first compound 0.05 µM) | relative viability ([2]; first compound 0.1581 µM) | relative viability ([2]; first compound 0.5 µM) | relative viability ([3]; first compound 0.2 µM) | relative viability ([3]; first compound 0.6325 µM) | relative viability ([3]; first compound 2 µM) | relative viability ([3]; first compound 6.325 µM) | relative viability ([3]; first compound 20 µM)
1 | NCI-H2347 | 0.835 | 0.87 | 0.575 | 0.526 | 0.42 | 1.1 | 1.22 | 0.91 | 0.573 | 0.606 | 1.15 | 0.64 | 0.493 | 0.412 | 0.537 | 0.721 | 0.741 | 0.725 | 0.857 | 0.801
2 | NCI-H2405 | 1 | 0.86 | 0.889 | 0.55 | 0.216 | 0.842 | 0.643 | 0.488 | 0.367 | 0.258 | 0.797 | 0.814 | 0.78 | 0.511 | 0.271 | 1.23 | 0.892 | 1.15 | 0.766 | 1.08
3 | NCI-H3122 | 1.13 | 1.1 | 1.12 | 1.12 | 0.536 | 0.92 | 0.983 | 0.932 | 0.841 | 0.48 | 0.56 | 0.553 | 0.421 | 0.366 | 0.176 | 1.02 | 1.02 | 1.02 | 1.01 | 1.02
4 | PC-3 [JPC-3] | 0.84 | 0.788 | 0.763 | 0.65 | 0.55 | 1.03 | 1.1 | 0.985 | 0.913 | 0.65 | 0.87 | 0.998 | 0.765 | 0.777 | 0.587 | 0.83 | 0.753 | 0.904 | 0.716 | 0.841
5 | PC-14 | 1.09 | 1.07 | 0.765 | 0.863 | 0.607 | 0.973 | 1.01 | 0.465 | 0.602 | 0.471 | 0.639 | 0.668 | 0.674 | 0.546 | 0.163 | 1.05 | 0.987 | 0.978 | 0.88 | 0.999
6 | RERF-LC-KJ | 1.24 | 1.1 | 0.792 | 0.618 | 0.641 | 0.888 | 0.689 | 0.591 | 0.535 | 0.445 | 0.489 | 0.592 | 0.44 | 0.433 | 0.284 | 0.949 | 0.995 | 0.965 | 0.787 | 0.86
7 | SK-LU-1 | 0.822 | 0.736 | 0.509 | 0.292 | 0.173 | 0.652 | 0.613 | 0.436 | 0.536 | 0.258 | 0.288 | 0.349 | 0.267 | 0.293 | 0.204 | 0.698 | 0.767 | 0.813 | 0.969 | 0.799
8 | SK-MES-1 | 1.35 | 1.25 | 0.59 | 0.354 | 0.343 | 0.862 | 0.337 | 0.332 | 0.302 | 0.229 | 0.966 | 0.834 | 0.341 | 0.455 | 0.197 | 1.28 | 1.3 | 1.17 | 1 | 1.14
9 | SW 1573 | 1.14 | 1.01 | 0.851 | 0.699 | 0.68 | 0.822 | 0.841 | 0.401 | 0.568 | 0.379 | 0.146 | 0.172 | 0.142 | 0.1 | 0.116 | 0.908 | 0.979 | 1.15 | 0.862 | 0.833
